Calls of active or inactive are those of the source. No cut-off for these calls is given here.

Data set [1] can be described thus: (§1) Cytotoxicity against human HCT15 cells assessed as growth inhibition at 50 uM after 48 hrs by SRB method. It counts as functional. The following applies: HCT-15, 48 h, read-out: GI.
For data set [2], the system named is MCF7. Kind of data set: Cytotoxicity against human MCF7 cells assessed as growth inhibition at 50 uM after 48 hrs by SRB method. In kind it is functional. Conditions: for inhibition of growth at 50 µM: MCF7, 48 h, read-out: GI.
Data set [3] is described as follows: Cytotoxicity against mouse J774 cells assessed as growth inhibition at 50 uM after 48 hrs by SRB method. In kind it is cell-based. The following applies: read-out: GI.
Data set [4] has as its system PC-3. As to the kind of experiment: Cytotoxicity against human PC3 cells assessed as growth inhibition at 50 uM after 48 hrs by SRB method. In kind it is functional. The following applies: PC-3, 48 h, read-out: GI.
Data set [5] concerns HCT-15. The description is as §1. It counts as functional.

Consider `CC(=O)C1=CC[C@H]2[C@@H]3CC(=O)C4=C[C@@H](O)CC[C@]4(C)[C@H]3CC[C@]12C`, for which the inhibition of growth at 50 µM in data set [1] is 67.7%; in data set [2] it was 63.5%; in data set [4], 70.6%. In addition, the inhibition at 48 h, 50 µM in data set [3] stood at 98.9%.

For the compound `CC(=O)C1=CC[C@H]2[C@@H]3CC(=O)C4=C[C@@H](OC(=O)Nc5ccc(I)cc5)CC[C@]4(C)[C@H]3CC[C@]12C`, the results for the inhibition of growth at 50 µM in data set [1], in data set [2] and in data set [4] were 43.2%, 33.1% and 42.8%, respectively. Moreover, the inhibition at 48 h, 50 µM in data set [3] was 70.7%.

Regarding `CC(=O)C1=CC[C@H]2[C@@H]3CC(=O)C4=C[C@@H](OC(=O)c5ccccc5)CC[C@]4(C)[C@H]3CC[C@]12C`, the inhibition of growth at 50 µM was found to be 48.7% in data set [1], 32.7% in data set [2] and 2.9% in data set [4]. The inhibition at 48 h, 50 µM in data set [3] came out at 89.3%.

Regarding `CC(=O)C1=CC[C@H]2[C@@H]3CC(=O)C4=C[C@@H](OC(=O)c5ccc(Br)cc5)CC[C@]4(C)[C@H]3CC[C@]12C`, the inhibition of growth at 50 µM in data set [1] came to 55.9%; in data set [2], 86.2%; in data set [4], 51.9%. Moreover, the inhibition at 48 h, 50 µM in data set [3] was determined as 60.9%.

In the case of `CC(=O)[C@@]1(OC(=O)Nc2ccc(Br)cc2)CC[C@H]2[C@@H]3C=CC4=CC(=O)CC[C@]4(C)[C@H]3CC[C@@]21C`, the “growth inhibition (GI)” value in data set [5] was “inactive”. The inhibition of growth at 50 µM in data set [2] was 13.1%; in data set [4], 26.4%. The inhibition at 48 h, 50 µM in data set [3] worked out at 32%.

Consider `CC(=O)[C@@]1(OC(=O)c2ccc(Cl)cc2)CC[C@H]2[C@@H]3C=CC4=CC(=O)CC[C@]4(C)[C@H]3CC[C@@]21C`, for which the inhibition of growth at 50 µM was determined as 39.3% in data set [1], 39.8% in data set [2] and 46.1% in data set [4]. Moreover, the inhibition at 48 h, 50 µM in data set [3] came out at 73.6%.

In the case of `CC(=O)C1=CC[C@H]2[C@@H]3CC(=O)C4=C[C@@H](OC(=O)Nc5ccccc5)CC[C@]4(C)[C@H]3CC[C@]12C`, the inhibition of growth at 50 µM was determined as 41.4% in data set [1], 34.7% in data set [2] and 4.5% in data set [4]. Besides, in data set [3], the inhibition at 48 h, 50 µM is 73.8%.

As for `CC(=O)[C@@]1(O)CC[C@H]2[C@@H]3C=CC4=CC(=O)CC[C@]4(C)[C@H]3CC[C@@]21C`, the values for the inhibition of growth at 50 µM in data set [1], in data set [2] and in data set [4] were 25%, 27.8% and 39.6%, respectively. The inhibition at 48 h, 50 µM in data set [3] is 58.5%.

For `CC(=O)C1=CC[C@H]2[C@@H]3CC(=O)C4=C[C@@H](OC(=O)Nc5ccc(Cl)cc5)CC[C@]4(C)[C@H]3CC[C@]12C`, the inhibition of growth at 50 µM in data set [1] amounted to 65.3%; in data set [2], 13.7%; in data set [4], 63.4%. The inhibition at 48 h, 50 µM in data set [3] came out at 92.4%.

As to `CC(=O)[C@@]1(OC(=O)Nc2ccc(F)cc2)CC[C@H]2[C@@H]3C=CC4=CC(=O)CC[C@]4(C)[C@H]3CC[C@@]21C`, the “growth inhibition (GI)” value in data set [5] was “inactive”. Besides, the inhibition of growth at 50 µM in data set [2] was found to be 20%; in data set [4] it was 33.4%. Besides, the inhibition at 48 h, 50 µM in data set [3] is 43.4%.

For `CC(=O)[C@@]1(OC(=O)c2ccccc2)CC[C@H]2[C@@H]3C=CC4=CC(=O)CC[C@]4(C)[C@H]3CC[C@@]21C`, the figures for the inhibition of growth at 50 µM in data set [1], in data set [2] and in data set [4] were 50.8%, 26.8% and 42.5%, respectively. Besides, the inhibition at 48 h, 50 µM in data set [3] was found to be 100%.

In the case of `CC(=O)[C@@]1(OC(=O)Nc2ccc(I)cc2)CC[C@H]2[C@@H]3C=CC4=CC(=O)CC[C@]4(C)[C@H]3CC[C@@]21C`, the “growth inhibition (GI)” value in data set [5] and in data set [2] was “inactive” in each case. Moreover, in data set [3], the inhibition at 48 h, 50 µM worked out at 21.7%. Further, the inhibition of growth at 50 µM in data set [4] was 17.8%.

On to `CC(=O)[C@@]1(OC(=O)c2ccc(Br)cc2)CC[C@H]2[C@@H]3C=CC4=CC(=O)CC[C@]4(C)[C@H]3CC[C@@]21C`, for which the inhibition of growth at 50 µM in data set [1] stood at 53.9%; in data set [2] it was 44.4%; in data set [4], 84.7%. Moreover, the inhibition at 48 h, 50 µM in data set [3] is 57%.

As to `CC(=O)[C@@]1(OC(=O)c2ccc(I)cc2)CC[C@H]2[C@@H]3C=CC4=CC(=O)CC[C@]4(C)[C@H]3CC[C@@]21C`, the inhibition of growth at 50 µM is 27.5% in data set [1], 22.6% in data set [2] and 30.8% in data set [4]. Moreover, the inhibition at 48 h, 50 µM in data set [3] came to 74.3%.

Turning to `CC(=O)C1=CC[C@H]2[C@@H]3CC(=O)C4=C[C@@H](OC(=O)c5ccc(Cl)cc5)CC[C@]4(C)[C@H]3CC[C@]12C`, the inhibition of growth at 50 µM in data set [1] was determined as 88.2%; in data set [2], 100%; in data set [4], 87.3%. Moreover, in data set [3], the inhibition at 48 h, 50 µM came to 38.8%.

Take `CC(=O)[C@@]1(OC(=O)Nc2ccc(Cl)cc2)CC[C@H]2[C@@H]3C=CC4=CC(=O)CC[C@]4(C)[C@H]3CC[C@@]21C`: in data set [5], the “growth inhibition (GI)” value was “inactive”. Also, the inhibition of growth at 50 µM in data set [2] turned out to be 11.2%; in data set [4], 15.8%. For the same compound, in data set [3], the inhibition at 48 h, 50 µM was 36.9%.

As for `CC(=O)C1=CC[C@H]2[C@@H]3CC(=O)C4=C[C@@H](OC(=O)Nc5ccc(F)cc5)CC[C@]4(C)[C@H]3CC[C@]12C`, the inhibition of growth at 50 µM in data set [1] was 60.1%; in data set [2] it was 34.6%; in data set [4], 33%. Besides, the inhibition at 48 h, 50 µM in data set [3] was found to be 78.3%.

Take `CC(=O)N1CCN(c2ccc(OCC3COC(Cn4ccnc4)(c4ccc(Cl)cc4Cl)O3)cc2)CC1` (configuration not stated) [KETOCONAZOLE]: the inhibition of growth at 50 µM in data set [1] was 90.6%; in data set [2], 95.2%; in data set [4], 88.5%. The inhibition at 48 h, 50 µM in data set [3] amounted to 54%.

On to `CC(=O)[C@@]1(OC(=O)Nc2ccccc2)CC[C@H]2[C@@H]3C=CC4=CC(=O)CC[C@]4(C)[C@H]3CC[C@@]21C`, for which the figures for the inhibition of growth at 50 µM in data set [1], in data set [2] and in data set [4] were 45.3%, 51.3% and 96.6%, respectively. Further, the inhibition at 48 h, 50 µM in data set [3] was 48.2%.

Consider `CC(=O)C1=CC[C@H]2[C@@H]3CC(=O)C4=C[C@@H](OC(=O)Nc5ccc(Br)cc5)CC[C@]4(C)[C@H]3CC[C@]12C`, for which the results for the inhibition of growth at 50 µM in data set [1], in data set [2] and in data set [4] were 30%, 14% and 26.9%, respectively. Also, in data set [3], the inhibition at 48 h, 50 µM was found to be 80.5%.

On to `CC(=O)C1=CC[C@H]2[C@@H]3CC(=O)C4=C[C@@H](OC(=O)c5ccc(F)cc5)CC[C@]4(C)[C@H]3CC[C@]12C`, for which the figures for the inhibition of growth at 50 µM in data set [1], in data set [2] and in data set [4] were 22.8%, 20.8% and 8.3%, respectively. In data set [3], the inhibition at 48 h, 50 µM turned out to be 50%.

In the case of `CC(=O)[C@@]1(OC(=O)c2ccc(F)cc2)CC[C@H]2[C@@H]3C=CC4=CC(=O)CC[C@]4(C)[C@H]3CC[C@@]21C`, the inhibition of growth at 50 µM worked out at 35.6% in data set [1], 29.2% in data set [2] and 30.9% in data set [4]. For the same compound, the inhibition at 48 h, 50 µM in data set [3] was 100%.

Take `CC(=O)C1=CC[C@H]2[C@@H]3CC(=O)C4=C[C@@H](OC(=O)c5ccc(I)cc5)CC[C@]4(C)[C@H]3CC[C@]12C`: the inhibition of growth at 50 µM in data set [1] is 67.3%; in data set [2], 100%; in data set [4] it was 64.1%. For the same compound, the inhibition at 48 h, 50 µM in data set [3] was 61.1%.

Source of the values: ChEMBL document CHEMBL3286271, “Synthesis and cytotoxic effect on cancer cell lines and macrophages of novel progesterone derivatives having an ester or a carbamate function at C-3 and C-17” (Eur J Med Chem, 2014).
